Data from US20230233569A1 (Revolution Medicines, Inc., priority 2020, published 2023).

How the values were obtained:
[1] = test system: P70S6K (Thr389) phosphorylation (mTORC1) in MDA-MB-468 cells; experiment: Cell based AlphaLISA assay, mTOR kinase cellular assay: inhibition of p-P70S6K (T389) in MDA-MB-468 cells; details: Homo sapiens, read-out: pIC50 for Inhibition of mTORC1 and mTORC2 Substarte Phosphorylation p-P70S6K-(T389) (converted)
Experimental: (§1) Cell Based AlphaLISA Assays for Determining IC50 For Inhibition of P-Akt (S473), P-4E-BP1 (T37/46), and P-P70S6K (T389) in MDA-MB-468 Cells
(§2) mTOR Kinase Cellular Assay
(§3) To measure functional activity of mTORC1 and mTORC2 in cells the phosphorylation of 4EBP1 (Thr37/46) and P70S6K (Thr389), and AKT1/2/3 (Ser473) was monitored using AlphaLisa SureFire Ultra Kits (Perkin Elmer). MDA-MB-468 cells (ATCC® HTB-132) were cultured in 96-well tissue culture plates and treated with compounds in the disclosure at concentrations varying from 0.017-1,000 nM for two to four hours at 37° C. Incubations were terminated by removal of the assay buffer and addition of lysis buffer provided with the assay kit. Samples were processed according to the manufacturer's instructions. The Alpha signal from the respective phosphoproteins was measured in duplicate using a microplate reader (Envision, Perkin-Elmer or Spectramax M5, Molecular Devices). Inhibitor concentration response curves were analyzed using normalized IC50 regression curve fitting with control based normalization.

[2] = test system: 4EBP1 (Thr37/46) phosphorylation (mTORC1) in MDA-MB-468 cells; experiment: Cell based AlphaLISA assay, mTOR kinase cellular assay: inhibition of p-4E-BP1 (T37/46) in MDA-MB-468 cells; details: Homo sapiens, read-out: pIC50 for Inhibition of mTORC1 and mTORC2 Substarte Phosphorylation p-4E-BP1-(T37/46) (converted)
Experimental: as §1, §2, §3

AsPC-1 (K-Ras G12D) [3] = experiment: Potency assay: pERK; format: cell-based; details: Homo sapiens, ASPC1, read-out: pERK EC50
AsPC-1 (K-Ras G12D) [4] = experiment: CellTiter-Glo cell viability assay; format: cell-based; details: Homo sapiens, ASPC1, 120 h, read-out: AsPC-1 Cell Viability assay data IC50, K-Ras G12D, 5-day treatment
How it was run: (§4)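 Percent-of-DMSO luminescence values (CellTiter-Glo, day 5, plates equilibrated ~30 minutes at ambient temperature) were curve-fitted using a 4-parameter logistic equation; compounds had been added straight into wells containing the cells.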

NCI-H358 (K-Ras G12C) = experiment: CellTiter-Glo cell viability assay; format: cell-based; details: Homo sapiens, NCI-H358, 120 h, read-out: H358 Cell Viability assay data IC50, K-Ras G12C, 5-day treatment
How it was run: as §4

KRAS G12D = KRAS G12D (Homo sapiens, UniProt P01116+P62937, G12D); experiment: Ras-Raf disruption / FRET / MOA assay (BRAF RBD); format: biochemical; details: KRAS G12D FRET data IC50, Ras-Raf disruption, with Cyclophilin A
How it was run: (§5)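 Compound-induced Ras–Cyclophilin A ternary complex disrupting BRAF RBD binding, read as IC50 from reduced TR-FRET ratio relative to DMSO. Final: Ras-GMPPNP 12.5 nM, BRAF RBD 50 nM, Cyclophilin A 25 μM, top compound 30 μM (3-fold, 10 points); 3 h at 25 °C, then 1.5 h with detection antibodies.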

KRAS G12S = KRAS G12S (Homo sapiens, UniProt P01116+P62937, G12S); experiment: Ras-Raf disruption / FRET / MOA assay (BRAF RBD); format: biochemical; details: KRAS G12S FRET data IC50, Ras-Raf disruption, with Cyclophilin A
How it was run: as §5

KRAS G12V = KRAS G12V (Homo sapiens, UniProt P01116+P62937, G12V); experiment: Ras-Raf disruption / FRET / MOA assay (BRAF RBD); format: biochemical; details: KRAS G12V FRET data IC50, Ras-Raf disruption, with Cyclophilin A
How it was run: as §5

KRAS G13C = KRAS G13C (Homo sapiens, UniProt P01116+P62937, G13C); experiment: Ras-Raf disruption / FRET / MOA assay (BRAF RBD); format: biochemical; details: KRAS G13C FRET data IC50, Ras-Raf disruption, with Cyclophilin A
How it was run: as §5

KRAS G13D = KRAS G13D (Homo sapiens, UniProt P01116+P62937, G13D); experiment: Ras-Raf disruption / FRET / MOA assay (BRAF RBD); format: biochemical; details: KRAS G13D FRET data IC50, Ras-Raf disruption, with Cyclophilin A
How it was run: as §5

KRAS Q61H = KRAS Q61H (Homo sapiens, UniProt P01116+P62937, Q61H); experiment: Ras-Raf disruption / FRET / MOA assay (BRAF RBD); format: biochemical
How it was run: as §5

KRAS WT = KRAS WT (Homo sapiens, UniProt P01116+P62937); experiment: Ras-Raf disruption / FRET / MOA assay (BRAF RBD); format: biochemical; details: KRAS WT FRET data IC50, Ras-Raf disruption, with Cyclophilin A
How it was run: as §5

NRAS G12C = NRAS G12C (Homo sapiens, UniProt P01111+P62937, G12C); experiment: Ras-Raf disruption / FRET / MOA assay (BRAF RBD); format: biochemical; details: NRAS G12C FRET data IC50, NRAS G12C
How it was run: as §5

NRAS Q61K = NRAS Q61K (Homo sapiens, UniProt P01111+P62937, Q61K); experiment: Ras-Raf disruption / FRET / MOA assay (BRAF RBD); format: biochemical
How it was run: as §5

NRAS Q61R = NRAS Q61R (Homo sapiens, UniProt P01111+P62937, Q61R); experiment: Ras-Raf disruption / FRET / MOA assay (BRAF RBD); format: biochemical
How it was run: as §5

NRAS WT = NRAS WT (Homo sapiens, UniProt P01111+P62937); experiment: Ras-Raf disruption / FRET / MOA assay (BRAF RBD); format: biochemical
How it was run: as §5

KRAS G12C = KRAS G12C (Homo sapiens, UniProt P01116+P62937, G12C); experiment: Ras-Raf disruption / FRET / MOA assay (BRAF RBD); format: biochemical; details: KRAS G12C FRET data IC50, Ras-Raf disruption, with Cyclophilin A
How it was run: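 TR-FRET read-out after 1.5 h with anti-His Eu-W1024 (10 nM) and anti-GST APC (50 nM), following 3 h at 25 °C of compound (top 30 μM, 3-fold, 10 points) with 25 μM Cyclophilin A, 12.5 nM GMPPNP-loaded K-Ras G12C and 50 nM BRAF RBD; IC50 reported.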

Chain of NRAS Q61K (P01111 whole entry Q61K): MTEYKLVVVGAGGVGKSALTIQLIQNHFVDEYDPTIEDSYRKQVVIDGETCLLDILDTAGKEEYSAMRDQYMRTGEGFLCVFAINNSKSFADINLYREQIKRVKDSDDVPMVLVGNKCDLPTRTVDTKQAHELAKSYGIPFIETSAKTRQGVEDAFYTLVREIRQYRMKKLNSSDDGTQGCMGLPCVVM
Chain of NRAS Q61K (P62937 whole entry): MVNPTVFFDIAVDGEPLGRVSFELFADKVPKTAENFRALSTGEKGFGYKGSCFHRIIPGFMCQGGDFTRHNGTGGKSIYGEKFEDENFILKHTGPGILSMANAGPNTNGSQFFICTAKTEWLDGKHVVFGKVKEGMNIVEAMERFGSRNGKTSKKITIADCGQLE
Chain of NRAS Q61R (P01111 whole entry Q61R): as the sequence (P01111 whole entry Q61K) above, with K61R counted along it
Chain of NRAS Q61R (P62937 whole entry): as the sequence (P62937 whole entry) above
Chain of KRAS G13D (P01116 1-169 isoform P01116-2 G13D limits assumed): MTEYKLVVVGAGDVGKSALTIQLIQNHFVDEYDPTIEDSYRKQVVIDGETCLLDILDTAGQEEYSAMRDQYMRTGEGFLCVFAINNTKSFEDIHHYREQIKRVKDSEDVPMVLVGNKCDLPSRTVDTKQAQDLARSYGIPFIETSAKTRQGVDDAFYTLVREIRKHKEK
Chain of KRAS G13D (P62937 whole entry): as the sequence (P62937 whole entry) above
Chain of KRAS G12C (P01116 1-169 isoform P01116-2 G12C limits assumed): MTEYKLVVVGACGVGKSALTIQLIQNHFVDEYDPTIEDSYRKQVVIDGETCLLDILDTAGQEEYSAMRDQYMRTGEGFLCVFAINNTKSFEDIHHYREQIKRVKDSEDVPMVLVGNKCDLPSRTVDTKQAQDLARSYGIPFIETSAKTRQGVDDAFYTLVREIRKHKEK
Chain of KRAS G12C (P62937 whole entry): as the sequence (P62937 whole entry) above
Chain of KRAS G12D (P01116 1-169 isoform P01116-2 G12D limits assumed): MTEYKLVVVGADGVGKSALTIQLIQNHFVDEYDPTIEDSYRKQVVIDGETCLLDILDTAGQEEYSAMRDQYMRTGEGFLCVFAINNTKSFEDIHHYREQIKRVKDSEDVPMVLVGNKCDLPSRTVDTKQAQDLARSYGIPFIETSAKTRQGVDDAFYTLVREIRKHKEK
Chain of KRAS G12D (P62937 whole entry): as the sequence (P62937 whole entry) above
Chain of KRAS Q61H (P01116 1-169 isoform P01116-2 Q61H limits assumed): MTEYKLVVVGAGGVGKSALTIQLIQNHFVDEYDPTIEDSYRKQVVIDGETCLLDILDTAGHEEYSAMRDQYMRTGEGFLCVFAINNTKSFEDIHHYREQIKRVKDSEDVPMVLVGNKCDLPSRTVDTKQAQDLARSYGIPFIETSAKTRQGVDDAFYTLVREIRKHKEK
Chain of KRAS Q61H (P62937 whole entry): as the sequence (P62937 whole entry) above
Chain of KRAS WT (P01116 1-169 isoform P01116-2 limits assumed): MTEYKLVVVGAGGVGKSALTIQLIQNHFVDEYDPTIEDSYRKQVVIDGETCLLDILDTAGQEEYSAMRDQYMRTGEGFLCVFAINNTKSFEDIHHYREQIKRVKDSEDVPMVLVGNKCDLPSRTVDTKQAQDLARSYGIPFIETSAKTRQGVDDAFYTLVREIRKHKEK
Chain of KRAS WT (P62937 whole entry): as the sequence (P62937 whole entry) above
Chain of NRAS WT (P01111 whole entry): as the sequence (P01111 whole entry Q61K) above, with K61Q counted along it
Chain of NRAS WT (P62937 whole entry): as the sequence (P62937 whole entry) above
Chain of KRAS G12S (P01116 1-169 isoform P01116-2 G12S limits assumed): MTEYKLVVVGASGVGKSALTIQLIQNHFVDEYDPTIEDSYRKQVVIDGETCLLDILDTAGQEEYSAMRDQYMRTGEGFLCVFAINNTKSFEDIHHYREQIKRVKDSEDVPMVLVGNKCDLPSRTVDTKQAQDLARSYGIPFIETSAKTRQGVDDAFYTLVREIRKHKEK
Chain of KRAS G12S (P62937 whole entry): as the sequence (P62937 whole entry) above
Chain of KRAS G12V (P01116 1-169 isoform P01116-2 G12V limits assumed): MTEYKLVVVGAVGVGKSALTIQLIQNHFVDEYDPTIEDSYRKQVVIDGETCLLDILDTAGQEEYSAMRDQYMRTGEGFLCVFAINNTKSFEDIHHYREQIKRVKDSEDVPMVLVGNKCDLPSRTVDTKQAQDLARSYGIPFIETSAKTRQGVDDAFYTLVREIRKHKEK
Chain of KRAS G12V (P62937 whole entry): as the sequence (P62937 whole entry) above
Chain of KRAS G13C (P01116 1-169 isoform P01116-2 G13C limits assumed): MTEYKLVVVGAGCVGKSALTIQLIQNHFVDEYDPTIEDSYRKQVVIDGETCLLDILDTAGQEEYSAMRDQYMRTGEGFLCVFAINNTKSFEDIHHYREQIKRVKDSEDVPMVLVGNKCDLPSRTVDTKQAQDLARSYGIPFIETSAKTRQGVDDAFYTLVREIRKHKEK
Chain of KRAS G13C (P62937 whole entry): as the sequence (P62937 whole entry) above
Chain of NRAS G12C (P01111 whole entry G12C): as the sequence (P01111 whole entry Q61K) above, with G12C, K61Q counted along it
Chain of NRAS G12C (P62937 whole entry): as the sequence (P62937 whole entry) above

Compound CO[C@H]1C[C@@H]2CC[C@@H](C)[C@@](O)(O2)C(=O)C(=O)N2CCCC[C@H]2C(=O)O[C@H]([C@H](C)C[C@@H]2CC[C@@H](OC(=O)NCc3cnc(N4CCN(C(=O)CCOCCN5CCN(c6ncc(C(=O)N7CCc8cc(Cn9nc(-c%10cnc%11[nH]ccc%11c%10)c%10c(N)ncnc%109)ccc8C7)cn6)CC5)CC4)nc3)[C@H](OC)C2)CC(=O)[C@H](C)/C=C(\C)[C@@H](O)[C@@H](OC)C(=O)[C@H](C)C[C@H](C)/C=C/C=C/C=C/1C [Example 52] has an IC50 [1] of at most 1 nM and an IC50 [2] of at most 3.16 nM.

With CCn1c(-c2cccnc2[C@H](C)OC)c2c3cc(ccc31)-c1cc(O)cc(c1)C[C@H](NC(=O)[C@H](C(C)C)N(C)C(=O)CN(C)C(=O)[C@H]1CN1CC(=O)N(C)C)C(=O)N1CCC[C@H](N1)C(=O)OCC(C)(C)C2 (some centres unmarked) [Example 270] the EC50 (AsPC-1 (K-Ras G12D) [3]) was under 5000 nM, the IC50 (AsPC-1 (K-Ras G12D) [4]) was 100 to 1000 nM and the IC50 (NCI-H358 (K-Ras G12C)) was 10 to 100 nM. For the same compound, the IC50 (KRAS G12D) was 100 to 1000 nM, the IC50 (KRAS G12S) was 10 to 100 nM and the IC50 (KRAS G12V) was 100 to 1000 nM. For the same compound, the IC50 (KRAS G13C) was 10 to 100 nM, the IC50 (KRAS G13D) was 100 to 1000 nM and the IC50 (KRAS Q61H) was 100 to 1000 nM. For the same compound, the IC50 (KRAS WT) was 100 to 1000 nM, the IC50 (NRAS G12C) was under 10 nM and the IC50 (NRAS Q61K) was 1000 to 10000 nM. The IC50 (NRAS Q61R) was 1000 to 10000 nM, the IC50 (NRAS WT) was 100 to 1000 nM and the IC50 (KRAS G12C) was under 10 nM.

Compound CCn1c(-c2cccnc2[C@H](C)OC)c2c3cc(ccc31)-c1cc(O)cc(c1)C[C@H](NC(=O)[C@H](C(C)C)N(C)C(=O)CN(C)C(=O)[C@H]1CN1CC1COC1)C(=O)N1CCC[C@H](N1)C(=O)OCC(C)(C)C2 (some centres unmarked) [Example 277] has an EC50 (AsPC-1 (K-Ras G12D) [3]) of under 5000 nM, an IC50 (AsPC-1 (K-Ras G12D) [4]) of 100 to 1000 nM and an IC50 (NCI-H358 (K-Ras G12C)) of 10 to 100 nM. The IC50 (KRAS G12D) was 100 to 1000 nM, the IC50 (KRAS G12S) was 10 to 100 nM and the IC50 (KRAS G12V) was 100 to 1000 nM. For the same compound, the IC50 (KRAS G13C) was 10 to 100 nM, the IC50 (KRAS G13D) was 100 to 1000 nM and the IC50 (KRAS Q61H) was 10 to 100 nM. The IC50 (KRAS WT) was 100 to 1000 nM, the IC50 (NRAS G12C) was 10 to 100 nM and the IC50 (NRAS Q61K) was 100 to 1000 nM. The IC50 (NRAS Q61R) was 1000 to 10000 nM, the IC50 (NRAS WT) was 100 to 1000 nM and the IC50 (KRAS G12C) was 10 to 100 nM.

CCn1c(-c2cccnc2[C@H](C)OC)c2c3cc(ccc31)-c1cc(O)cc(c1)C[C@H](NC(=O)[C@H](C(C)C)N(C)C(=O)CNC(=O)[C@@H]1N[C@@H]1C1CC1)C(=O)N1CCC[C@H](N1)C(=O)OCC(C)(C)C2 [Example 141] showed an EC50 (AsPC-1 (K-Ras G12D) [3]) of under 5000 nM, an IC50 (AsPC-1 (K-Ras G12D) [4]) of 100 to 1000 nM and an IC50 (NCI-H358 (K-Ras G12C)) of 100 to 1000 nM. It also gave an IC50 (KRAS G12D) of 10 to 100 nM, an IC50 (KRAS G12S) of 10 to 100 nM and an IC50 (KRAS G12V) of 10 to 100 nM. It also gave an IC50 (KRAS G13C) of 10 to 100 nM, an IC50 (KRAS G13D) of 100 to 1000 nM and an IC50 (KRAS Q61H) of 10 to 100 nM. The IC50 (KRAS WT) was 10 to 100 nM, the IC50 (NRAS G12C) was 10 to 100 nM and the IC50 (NRAS Q61K) was 100 to 1000 nM. The IC50 (NRAS Q61R) was 100 to 1000 nM, the IC50 (NRAS WT) was 10 to 100 nM and the IC50 (KRAS G12C) was 10 to 100 nM.

Compound CCn1c(-c2cccnc2[C@H](C)OC)c2c3cc(ccc31)-c1cc(O)cc(c1)C[C@H](NC(=O)[C@H](C(C)C)N(C)C(=O)CN(C)C(=O)[C@@H]1CN1CC1(C)COC1)C(=O)N1CCC[C@H](N1)C(=O)OCC(C)(C)C2 (some centres unmarked) [Example 280] has an EC50 (AsPC-1 (K-Ras G12D) [3]) of under 5000 nM, an IC50 (AsPC-1 (K-Ras G12D) [4]) of 1000 to 10000 nM and an IC50 (NCI-H358 (K-Ras G12C)) of under 10 nM. It also gave an IC50 (KRAS G12D) of 10 to 100 nM, an IC50 (KRAS G12S) of 10 to 100 nM and an IC50 (KRAS G12V) of 10 to 100 nM. For the same compound, the IC50 (KRAS G13C) was 10 to 100 nM, the IC50 (KRAS G13D) was 100 to 1000 nM and the IC50 (KRAS Q61H) was 10 to 100 nM. It also gave an IC50 (KRAS WT) of 10 to 100 nM, an IC50 (NRAS G12C) of under 10 nM and an IC50 (NRAS Q61K) of 100 to 1000 nM. It also gave an IC50 (NRAS Q61R) of 100 to 1000 nM, an IC50 (NRAS WT) of 10 to 100 nM and an IC50 (KRAS G12C) of under 10 nM.
